Experimental data from patent publication US9073940B2, “Tricyclic pyrazol amine derivatives” (MERCK SERONO SA, priority 2009, dated 2015).

Tested on: 4 PI3K isoforms (Human recombinant GST-PI3K)
Experiment: PI3K scintillation proximity assay, best IC50 obtained with the four isoforms (alpha, beta, delta, gamma)
Format: biochemical
Settings: best IC50 obtained with the four isoforms of PI3K; read-out: Best potency measured on the 4 PI3K isoforms

CN1CCCC(Cn2nc(C(=O)N3CCOCC3)c3c2-c2ccccc2S(=O)(=O)C3)C1 (stereo not drawn) [Example 70, 1-[(1-Methylpiperidin-3-yl)methyl]-3-(morpholin-4-ylcarbonyl)-1,4-dihydrothiochromeno[4,3-c]pyrazole 5,5-dioxide] showed an IC50 of 6050 nM.

CN1CCCC1CCn1nc(C(=O)N2CCOCC2)c2c1-c1ccccc1S(=O)(=O)C2 (stereo not drawn) [Example 71, 1-[2-(1-Methylpyrrolidin-2-yl)ethyl]-3-(morpholin-4-ylcarbonyl)-1,4-dihydrothiochromeno[4,3-c]pyrazole 5,5-dioxide] was tested, and the IC50 was 1230 nM.

For O=C(c1nn(CCN2CCOCC2)c2c1CS(=O)(=O)c1ccccc1-2)N1CCOCC1 [Example 72, 3-(Morpholin-4-ylcarbonyl)-1-(2-morpholin-4-ylethyl)-1,4-dihydrothiochromeno[4,3-c]pyrazole 5,5-dioxide], the IC50 was 795 nM.

Molecule O=C(c1nn(C2CCNCC2)c2c1CS(=O)(=O)c1ccccc1-2)N1CCOCC1 [Example 74] has an IC50 of 1520 nM.

In the case of O=C(c1nn(C2CCCNC2)c2c1CS(=O)(=O)c1ccccc1-2)N1CCOCC1 (stereo not drawn) [Example 75], the IC50 is reported as 3010 nM.

With CN1CCCC(n2nc(C(=O)N3CCOCC3)c3c2-c2ccccc2S(=O)(=O)C3)C1 (stereo not drawn) [Example 77, 1-(1-Methylpiperidin-3-yl)-3-(morpholin-4-ylcarbonyl)-1,4-dihydrothiochromeno[4,3-c]pyrazole 5,5-dioxide] the IC50 was 772 nM.

O=C(c1nn(C2CCCCCC2)c2c1CS(=O)(=O)c1ccccc1-2)N1CCOCC1 [Example 78, 1-Cycloheptyl-3-(morpholin-4-ylcarbonyl)-1,4-dihydrothiochromeno[4,3-c]pyrazole 5,5-dioxide] gave an IC50 of 469 nM.

In the case of O=C(c1nn(C2CCCNCC2)c2c1CS(=O)(=O)c1ccccc1-2)N1CCOCC1 (stereo not drawn) [Example 82], the IC50 is reported as 1900 nM.

In the case of O=C(c1nn(C2CCNC2)c2c1CS(=O)(=O)c1ccccc1-2)N1CCOCC1 (stereo not drawn) [Example 84], the IC50 is reported as 4640 nM.

For O=C(c1nn(-c2cccnc2)c2c1CS(=O)(=O)c1ccccc1-2)N1CCOCC1 [Example 88, 3-(Morpholin-4-ylcarbonyl)-1-pyridin-3-yl-1,4-dihydrothiochromeno[4,3-c]pyrazole 5,5-dioxide], the IC50 was 1130 nM.

COCCNc1ccc2c(c1)-c1c(c(C(=O)N3CCOCC3)nn1C1CCCCC1)CS2(=O)=O [Example 89] gave an IC50 of 1390 nM.

CC(C)(C)C1CCC(n2nc(C(=O)N3CCOCC3)c3c2-c2ccccc2S(=O)(=O)C3)CC1 (stereo not drawn) [Example 94, 1-(4-tert-Butylcyclohexyl)-3-(morpholin-4-ylcarbonyl)-1,4-dihydrothiochromeno[4,3-c]pyrazole 5,5-dioxide] gave an IC50 of 4120 nM.

With O=C(c1nn(C2CCC(O)CC2)c2c1CS(=O)(=O)c1ccccc1-2)N1CCOCC1 (stereo not drawn) [Example 98, 4-[3-(Morpholin-4-ylcarbonyl)-5,5-dioxidothiochromeno[4,3-c]pyrazol-1(4H)-yl]cyclohexanol] the IC50 was 512 nM.

Work on O=C(c1nn(C2CCCOC2)c2c1CS(=O)(=O)c1ccccc1-2)N1CCOCC1 (stereo not drawn) [Example 99] yielded an IC50 of 326 nM.

Molecule CC(=O)Nc1ccc2c(c1)-c1c(c(C(=O)N3CCOCC3)nn1-c1ccccc1)CS2(=O)=O [Example 100, N-[3-(Morpholin-4-ylcarbonyl)-5,5-dioxido-1-phenyl-1,4-dihydrothiochromeno[4,3-c]pyrazol-8-yl]acetamide] has an IC50 of 876 nM.

For COCCN1CCC(n2nc(C(=O)N3CCOCC3)c3c2-c2ccccc2S(=O)(=O)C3)CC1 [Example 101, 1-[1-(2-Methoxyethyl)piperidin-4-yl]-3-(morpholin-4-ylcarbonyl)-1,4-dihydrothiochromeno[4,3-c]pyrazole 5,5-dioxide], the IC50 was 1920 nM.

Molecule Cn1nc(C(=O)N2CCOCC2)c2c1-c1ccccc1S(=O)(=O)C2Cc1ccccc1 (stereo not drawn) [Example 111, 4-Benzyl-1-methyl-3-(morpholin-4-ylcarbonyl)-1,4-dihydrothiochromeno[4,3-c]pyrazole 5,5-dioxide] has an IC50 of 5270 nM.

With COCCCC1c2c(C(=O)N3CCOCC3)nn(-c3ccccc3)c2-c2ccccc2S1(=O)=O (stereo not drawn) [Example 112, 4-(3-Methoxypropyl)-3-(morpholin-4-ylcarbonyl)-1-phenyl-1,4-dihydrothiochromeno[4,3-c]pyrazole 5,5-dioxide] the IC50 was 5070 nM.

COc1ccc2c(c1)-c1c(c(C(=O)N3CCOCC3)nn1-c1ccccc1)CS2(=O)=O [Example 113, 8-Methoxy-3-(morpholin-4-ylcarbonyl)-1-phenyl-1,4-dihydrothiochromeno[4,3-c]pyrazole 5,5-dioxide] was tested, and the IC50 was 3350 nM.

CN1CCN(C(=O)c2ccc3c(c2)-c2c(c(C(=O)N4CCOCC4)nn2-c2ccccc2)CS3(=O)=O)CC1 [Example 114, 8-[(4-Methylpiperazin-1-yl)carbonyl]-3-(morpholin-4-ylcarbonyl)-1-phenyl-1,4-dihydrothiochromeno[4,3-c]pyrazole 5,5-dioxide] showed an IC50 of 4280 nM.

Work on CN(C)C(=O)c1ccc2c(c1)-c1c(c(C(=O)N3CCOCC3)nn1-c1ccccc1)CS2(=O)=O [Example 115, N,N-Dimethyl-3-(morpholin-4-ylcarbonyl)-1-phenyl-1,4-dihydrothiochromeno[4,3-c]pyrazole-8-carboxamide 5,5-dioxide] yielded an IC50 of 3730 nM.

In the case of O=C(c1ccc2c(c1)-c1c(c(C(=O)N3CCOCC3)nn1-c1ccccc1)CS2(=O)=O)N1CCOCC1 [Example 116, 3,8-Bis(morpholin-4-ylcarbonyl)-1-phenyl-1,4-dihydrothiochromeno[4,3-c]pyrazole 5,5-dioxide], the IC50 is reported as 3030 nM.

O=C(c1ccc2c(c1)-c1c(c(C(=O)N3CCOCC3)nn1-c1ccccc1)CS2(=O)=O)N1CCCCC1 [Example 117, 3-(Morpholin-4-ylcarbonyl)-1-phenyl-8-(piperidin-1-ylcarbonyl)-1,4-dihydrothiochromeno[4,3-c]pyrazole 5,5-dioxide] gave an IC50 of 3410 nM.

In the case of CS(=O)(=O)Nc1ccc2c(c1)-c1c(c(C(=O)N3CCOCC3)nn1-c1ccccc1)CS2(=O)=O [Example 118, N-[3-(Morpholin-4-ylcarbonyl)-5,5-dioxido-1-phenyl-1,4-dihydrothiochromeno[4,3-c]pyrazol-8-yl]methanesulfonamide], the IC50 is reported as 1310 nM.

With CC(C)(C)OC(=O)N1CCC(n2nc(C(=O)N3CCOCC3)c3c2-c2ccccc2S(=O)(=O)C3)CC1 [Example 119, tert-Butyl 4-[3-(morpholin-4-ylcarbonyl)-5,5-dioxidothiochromeno[4,3-c]pyrazol-1(4H)-yl]piperidine-1-carboxylate] the IC50 was 808 nM.

For CC(C)(C)OC(=O)N1CCCC(n2nc(C(=O)N3CCOCC3)c3c2-c2ccccc2S(=O)(=O)C3)C1 (stereo not drawn) [Example 120], the IC50 was 1540 nM.

O=C(c1nn(C2CCN(CCO)CC2)c2c1CS(=O)(=O)c1ccccc1-2)N1CCOCC1 [Example 121, 2-{4-[3-(Morpholin-4-ylcarbonyl)-5,5-dioxidothiochromeno[4,3-c]pyrazol-1 (4H)-yl]piperidin-1-yl}ethanol] showed an IC50 of 1760 nM.

O=C(c1nn(-c2ccccc2)c2c1CS(=O)(=O)c1cc(Br)ccc1-2)N1CCOCC1 [Example 122] gave an IC50 of 904 nM.

Molecule CS(=O)(=O)N1CCC(n2nc(C(=O)N3CCOCC3)c3c2-c2ccccc2S(=O)(=O)C3)CC1 [Example 123, 1-[1-(Methylsulfonyl)piperidin-4-yl]-3-(morpholin-4-ylcarbonyl)-1,4-dihydrothiochromeno[4,3-c]pyrazole 5,5-dioxide] has an IC50 of 2100 nM.

CN1CCN(C(=O)c2cccc(-n3nc(C(=O)N4CCOCC4)c4c3-c3ccccc3S(=O)(=O)C4)c2)CC1 [Example 124, 1-{3-[(4-Methylpiperazin-1-yl)carbonyl]phenyl}-3-(morpholin-4-ylcarbonyl)-1,4-dihydrothiochromeno[4,3-c]pyrazole 5,5-dioxide] was tested, and the IC50 was 253 nM.

O=C(c1cccc(-n2nc(C(=O)N3CCOCC3)c3c2-c2ccccc2S(=O)(=O)C3)c1)N1CCCCC1 [Example 125, 3-(Morpholin-4-ylcarbonyl)-1-[3-(piperidin-1-ylcarbonyl)phenyl]-1,4-dihydrothiochromeno[4,3-c]pyrazole 5,5-dioxide] showed an IC50 of 182 nM.

In the case of COCCNC(=O)c1cccc(-n2nc(C(=O)N3CCOCC3)c3c2-c2ccccc2S(=O)(=O)C3)c1 [Example 126, N-(2-Methoxyethyl)-3-[3-(morpholin-4-ylcarbonyl)-5,5-dioxidothiochromeno[4,3-c]pyrazol-1 (4H)-yl]benzamide], the IC50 is reported as 1110 nM.

CC1CCC(n2nc(C(=O)N3CCOCC3)c3c2-c2ccccc2S(=O)(=O)C3)CC1 (stereo not drawn) [Example 127, 1-(4-Methylcyclohexyl)-3-(morpholin-4-ylcarbonyl)-1,4-dihydrothiochromeno[4,3-c]pyrazole 5,5-dioxide] was tested, and the IC50 was 426 nM.

O=C(c1nn(C2CCCCC2)c2c1CS(=O)(=O)c1cc(Br)ccc1-2)N1CCOCC1 [Example 128, 7-Bromo-1-cyclohexyl-3-(morpholin-4-ylcarbonyl)-1,4-dihydrothiochromeno[4,3-c]pyrazole 5,5-dioxide] gave an IC50 of 691 nM.

Work on Cc1ccc2c(c1)-c1c(c(C(=O)N3CCOCC3)nn1-c1ccccc1)CS2(=O)=O [Example 129, 8-Methyl-3-(morpholin-4-ylcarbonyl)-1-phenyl-1,4-dihydrothiochromeno[4,3-c]pyrazole 5,5-dioxide] yielded an IC50 of 1500 nM.

Molecule CS(=O)(=O)c1ccc(-n2nc(C(=O)N3CCOCC3)c3c2-c2ccccc2S(=O)(=O)C3)cc1 [Example 130, 1-[4-(Methylsulfonyl)phenyl]-3-(morpholin-4-ylcarbonyl)-1,4-dihydrothiochromeno[4,3-c]pyrazole 5,5-dioxide] has an IC50 of 4520 nM.

Molecule COc1ccc(-n2nc(C(=O)N3CCOCC3)c3c2-c2ccccc2S(=O)(=O)C3)cn1 [Example 131, 1-(6-Methoxypyridin-3-yl)-3-(morpholin-4-ylcarbonyl)-1,4-dihydrothiochromeno[4,3-c]pyrazole 5,5-dioxide] has an IC50 of 2200 nM.

Molecule O=C(c1nn(-c2ccccc2)c2c1CS(=O)(=O)c1ncccc1-2)N1CCOCC1 [Example 132, 3-(Morpholin-4-ylcarbonyl)-1-phenyl-1,4-dihydropyrazolo[3′,4′:4,5]thiopyrano[2,3-b]pyridine 5,5-dioxide] has an IC50 of 530 nM.

COCCN1CCCC(n2nc(C(=O)N3CCOCC3)c3c2-c2ccccc2S(=O)(=O)C3)C1 (stereo not drawn) [Example 133, 1-[1-(2-Methoxyethyl)piperidin-3-yl]-3-(morpholin-4-ylcarbonyl)-1,4-dihydrothiochromeno[4,3-c]pyrazole 5,5-dioxide] showed an IC50 of 188 nM.
